# Read-outs that look alike come from different tables or passages of the source.
# Columns and labels:
# Penicillium commune = assay: Antimycotic activity in vitro, series dilution test; format: cell-based; conditions: 28° C, 24 to 96 hours, serum not stated, read-out: Minimum Inhibitory Concentration
# Description: (§1) Determination of the antimycotic spectrum of activity in vitro by the series dilution test.
# (§2) The nutrient media used were Sabouraud's milieu d'epreuve for dermatophytes and molds and meat broth-glucose bouillon for blastomycetes and biphase fungi.
# (§3) The incubation temperature was 28° C and the incubation time was 24 to 96 hours.
# Aspergillus niger = assay: as above; format: cell-based; conditions: 28° C, 24 to 96 hours, read-out: Minimum Inhibitory Concentration
# Description: as §1, §2, §3
# Microsporon canis = assay: as above; format: cell-based; conditions: 28° C, 24 to 96 hours; serum not stated; read-out: Minimum Inhibitory Concentration
# Description: as §1, §2, §3
# Candida albicans = assay: as above; format: cell-based; conditions: 28° C, 24 to 96 hours, read-out: Minimum Inhibitory Concentration
# Description: as §1, §2, §3
# [1] = test system: Trichophyton mentagrophytes; assay: as above; format: cell-based; conditions: 28° C, 24 to 96 hours, read-out: Minimum Inhibitory Concentration
# Description: as §1, §2, §3
# [2] = test system: Trichophyton mentagrophytes; assay: Topical application in experimental trichophytosis of guinea pigs; format: in vivo; parameters: key: ++: slight action = reduction of symptons of the infection; +++: action = rapid healing of the infection; ++++: good action = complete suppression of symptoms of the infection; conditions: 1% strength solution, topically for 11 to 14 days
# Text: a. Topical application in experimental trichophytosis of guinea pigs (excitant: Trichophyton mentagrophytes)
# A 1% strength solution of the active compound in a dimethylsulphoxide/glycerine/water mixture (1:3:6) or in polyethylene glycol 400 was applied topically for 11 to 14 days after the trichophytosis had been caused experimentally.
SMILES,MIC (Penicillium commune),MIC (Aspergillus niger; n.s. = no added serum),MIC (Aspergillus niger; w.s. = with 30% serum added),MIC (Microsporon canis),MIC (Candida albicans; w.s. = with 30% serum added),MIC ([1]; n.s. = no added serum),MIC ([1]; w.s. = with 30% serum added),MIC (Candida albicans; n.s. = no added serum),Action in trichophytosis of guinea pigs [2]
"Cc1ccccc1C(c1ccccc1)(c1ccccc1C)n1ccnc1 [Example 8 (from Table 1), 1-(2-Methylphenyl-2'-methylphenyl-phenyl)-methyl-imidazole]",10 µg/mL,< 1 µg/mL,10 µg/mL,4 µg/mL,10 µg/mL,,,,
"Cc1cccc(C(c2ccccc2)(c2ccccc2)n2ccnc2)c1C [Example 1 (from Table 1), 1-(2,3-dimethylphenyl-diphenyl)-methyl-imidazole]",< 1 µg/mL,,,4 µg/mL,,,,,
"Clc1ccccc1C(c1ccccc1)(c1ccccc1Cl)n1ccnc1 [Example 9 (from Table 1), 1-(2-Chlorophenyl-2'-chlorophenyl-phenyl) -methyl-imidazole]",1 µg/mL,< 1 µg/mL,,< 1 µg/mL,,,,,
Cc1ccc(C(c2ccccc2)(c2ccccc2)n2ccnc2)c(C)c1 [Example 2],100 µg/mL,1 µg/mL,4 µg/mL,4 µg/mL,,< 1 µg/mL,10 µg/mL,1 µg/mL,++++
"Cc1cc(Cl)ccc1C(c1ccccc1)(c1ccccc1)n1ccnc1 [Example 4 (from Table 1), 1-(2-Methyl-4-chlorophenyl-diphenyl)-methyl-imidazole]",4 µg/mL,1 µg/mL,10 µg/mL,4 µg/mL,,,,,
"Cc1ccc(C)c(C(c2ccccc2)(c2ccccc2)n2ccnc2)c1 [Example 3 (from Table 1), 1-(2,5-Dimethylphenyl-diphenyl)-methyl-imidazole]",4 µg/mL,1 µg/mL,40 µg/mL,4 µg/mL,,,,,
"Clc1cccc(Cl)c1C(c1ccccc1)(c1ccccc1)n1ccnc1 [Example 7 (from Table 1), 1-(2,6-Dichlorophenyl-diphenyl)-methyl-imidazole]",4 µg/mL,< 1 µg/mL,4 µg/mL,< 1 µg/mL,,,,,
Clc1cccc(C(c2ccccc2)(c2ccccc2)n2ccnc2)c1Cl [Example 6],4 µg/mL,< 1 µg/mL,10 µg/mL,< 1 µg/mL,,< 1 µg/mL,4 µg/mL,1 µg/mL,++

# — patent US4052409A, “Disubstituted triphenylmethylimidazoles” (Bayer Aktiengesellschaft, priority 1972, dated 1977)
